# Assays:
# Assay type in all cases: cell-based
# [1] = test system: TNFα; experiment: Human PBMC LPS TNFα assay; conditions: hPBMC, LPS stimulation, read-out: IRAK4 hPBMC LPS TNF-α inhibition: Average external-IC50
# Procedure, shortened: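 Thawed human PBMCs (200,000/well) were pretreated 20 h at 37 °C with compound (8-point, 5-fold dilutions from 2 μM), then stimulated with 100 ng/ml LPS for 5 h. Supernatant TNFα was measured by MSD V-plex, normalized to LPS-stimulated and unstimulated controls, and IC50 obtained by free-fit 4-parameter logistic regression.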
# [2] = target: T1, IRAK4 (Homo sapiens (Human), UniProt Q9NWZ3); experiment: IRAK4 degradation in human whole blood lymphocyte - flow cytometry; conditions: read-out: IRAK4 degradation in whole blood lymphocyte-Flow cytometry: Average external Abs IC50
# Procedure, shortened: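 Fresh heparinized human whole blood dosed (10-point, 5-fold, 0.1% DMSO) for 20 h or 4 h at 37 °C, then fixed, stained and IRAK4 MFI quantified by flow in CD14+ monocytes and CD14− lymphocytes. DC50 and Dmax via 4-parameter logistic fit normalized to DMSO and 10 μM control.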
# [3] = target: T1, IRAK4; experiment: IRAK4 MSD degradation in OCI-LY10; conditions: for DC50: OCI-LY10, 4 hrs, MSD, read-out: IRAK4 MSD degradation in OCI-LY10 at 4 hrs: Average external-Abs DC50
# Procedure, shortened: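 Remaining IRAK4 quantified by electrochemiluminescent MSD sandwich assay with two anti-IRAK4 antibodies. Compounds were dosed as 8 concentrations in 1:3 steps from a 1 to 10 μM final top on OCI-LY10 cells, incubated 4 to 24 h at 37° C. under 5% CO2. DC50 fitted with a three-parameter logistic curve.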
# [4] = test system: OCI-LY3; experiment: OCI-LY3 viability, CTG; conditions: Homo sapiens, MYD88 MUT
# T1 sequence (Q9NWZ3 whole entry): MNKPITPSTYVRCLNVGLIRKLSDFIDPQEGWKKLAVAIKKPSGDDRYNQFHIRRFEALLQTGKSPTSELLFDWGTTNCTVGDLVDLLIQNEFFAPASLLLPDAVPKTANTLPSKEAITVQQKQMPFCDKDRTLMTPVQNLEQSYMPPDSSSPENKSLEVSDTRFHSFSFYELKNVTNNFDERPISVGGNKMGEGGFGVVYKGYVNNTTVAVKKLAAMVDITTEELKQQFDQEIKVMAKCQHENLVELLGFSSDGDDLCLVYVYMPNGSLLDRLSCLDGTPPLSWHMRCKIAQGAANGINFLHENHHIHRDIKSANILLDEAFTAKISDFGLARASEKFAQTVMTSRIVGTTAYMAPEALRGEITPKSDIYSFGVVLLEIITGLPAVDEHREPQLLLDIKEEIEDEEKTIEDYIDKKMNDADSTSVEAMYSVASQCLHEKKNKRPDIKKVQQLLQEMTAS
Compound,IC50 [1] [nM],DC50 [2] [nM],DC50 [3] [nM],"depletion of IRAK4 in MYD88 mutant lymphoma cell lines ([3]; OCI-LY10 and TMD8, FIGS. 1-3 and 10)",IC50 [4] [nM]
"CN(CCCOCCCc1cccc2c1n(C)c(=O)n2C1CCC(=O)NC1=O)C[C@H]1CC[C@H](n2cc(NC(=O)c3coc(-c4ccnc(NCC5CC5)c4)n3)c(C(F)F)n2)CC1 (mixture of isomers) [I-30, 2-[2-(Cyclopropylmethylamino)-4-pyridyl]-N-[3-(difluoromethyl)-1-[4-[[3-[3-[1-(2,6-dioxo-3-piperidyl)-3-methyl-2-oxo-benzimidazol-4-yl]propoxy]propyl-methyl-amino]methyl]cyclohexyl]pyrazol-4-yl] oxazole-4-carboxamide]",50 to 100,< 50,< 10,potent depletion of IRAK4,
"CN(C[C@H]1CC[C@H](n2cc(NC(=O)c3coc(-c4ccnc(NCC5CC5)c4)n3)c(C(F)F)n2)CC1)C1CCN(Cc2cccc3c2n(C)c(=O)n3C2CCC(=O)NC2=O)CC1 (some centres unmarked) [I-75, 2-(2-((cyclopropylmethyl)amino)pyridin-4-yl)-N-(3-(difluoromethyl)-1-((1r,4r)-4-(((1-((1-(2,6-dioxopiperidin-3-yl)-3-methyl-2-oxo-2,3-dihydro-1H-benzo[d]imidazol-4-yl)methyl)piperidin-4-yl)(methyl)amino)methyl)cyclohexyl)-1H-pyrazol-4-yl)oxazole-4-carboxamide]",< 50,50 to 100,< 10,,180

# From patent publication US11352350B2, “IRAK degraders and uses thereof” (Kymera Therapeutics, Inc., priority 2018, dated 2022)
